Test results as given in publication PMC8286840, “Identifying SARS-CoV-2 antiviral compounds by screening for small molecule inhibitors of Nsp3 papain-like protease” (Biochemical Journal, 2021).
Counter-ions that a name gives are not always drawn. Like-named read-outs stand apart in the source and are kept apart here. *1 amine or outer side, *2 acyl side, *3 side chain or, on linkers, in order; H or OH if unused. Where a SMILES comes first, the peptide text is derived from it. Bridges are numbered along the chain shown (N, C = ends). Roman numbers before positions name the chains, in order. [ ]: non-standard residue; d: D form. Actinocin(9to1) = Cc1c2oc3c(C)ccc(C(=O)[*:1])c3nc-2c(C(=O)[*:2])c(N)c1=O; NMeV = CN[C@H](C(=O)O)C(C)C; Sar = CNCC(=O)O

Legend:
[1] = molecular target: T1, SARS-CoV-2 PLpro (nsp3 1564–1878) (Severe acute respiratory syndrome coronavirus 2, UniProt P0DTD1); test: biochemical; parameters: FRET-quenched peptide (Pro3) cleavage by PLpro, 10 min pre-incubation, slope over 20 min, normalised to no-compound control; conditions: read-out: % of control remaining
[2] = molecular target: T1, SARS-CoV-2 PLpro (nsp3 1564–1878); test: biochemical; parameters: FRET-quenched peptide (Pro3) cleavage by PLpro, 10 min pre-incubation, slope over 20 min, normalised to no-compound control; conditions: read-out: % of control remaining; remark: listed apart in the source

Question: For `CC(=O)OCC[N+](C)(C)C` [Acetylcholine], which remaining activity at 3.75 µM ([1]; Well no.=1550, high concentration screen) is on record?
Answer: 98.7%

Question: And the remaining activity at 1.25 µM ([2]; Well no.=1550, low concentration screen)?
Answer: 96.7%

Question: What does the source list for `CC(=O)N[C@@H](CS)C(=O)O` [Acetylcysteine]?
Answer: remaining activity at 3.75 µM ([1]; Well no.=6161, high concentration screen): 103%; remaining activity at 3.75 µM ([1]; Well no.=8266, high concentration screen): 101%; remaining activity at 1.25 µM ([2]; Well no.=6161, low concentration screen): 102%; remaining activity at 1.25 µM ([2]; Well no.=8266, low concentration screen): 99.9%

Question: What does the source list for `CC(=O)Oc1ccccc1C(=O)O` [Acetylsalicylic acid]?
Answer: remaining activity at 3.75 µM ([1]; Well no.=161, high concentration screen): 97.3%; remaining activity at 3.75 µM ([1]; Well no.=2067, high concentration screen): 103%; remaining activity at 1.25 µM ([2]; Well no.=161, low concentration screen): 101%; remaining activity at 1.25 µM ([2]; Well no.=2067, low concentration screen): 102%

Question: Which remaining activity at 3.75 µM ([1]; Well no.=257, high concentration screen) does the source give for `CC(=O)SCC[N+](C)(C)C` [Acetylthiocholine chloride] here?
Answer: 99.3%

Question: And the remaining activity at 1.25 µM ([2]; Well no.=257, low concentration screen)?
Answer: 97.5%

Question: How did the remaining activity at 3.75 µM ([1]; Well no.=2069, high concentration screen) turn out when `Cc1cnc(C(=O)O)c[n+]1[O-]` [Acipimox] was run?
Answer: 104%

Question: And the remaining activity at 1.25 µM ([2]; Well no.=2069, low concentration screen)?
Answer: 102%

Question: How did the remaining activity at 3.75 µM ([1]; Well no.=1817, high concentration screen) turn out when `COc1cc(C)c(/C=C/C(C)=C/C=C/C(C)=C/C(=O)O)c(C)c1C` [Acitretin] was run?
Answer: 96.3%

Question: What about the remaining activity at 1.25 µM ([2]; Well no.=1817, low concentration screen) of the same compound?
Answer: 96.4%

Question: `N[C@H](C(=O)O)[C@@H]1CC(Cl)=NO1` [Acivicin] was tested. Which remaining activity at 3.75 µM ([1]; Well no.=3483, high concentration screen) did it give?
Answer: 97.4%

Question: And the remaining activity at 1.25 µM ([2]; Well no.=3483, low concentration screen)?
Answer: 96.9%

Question: Which results are given for `CC[C@@]1(O)C[C@H](O[C@H]2C[C@H](N(C)C)[C@H](O[C@H]3C[C@H](O)[C@H](O[C@H]4CCC(=O)[C@H](C)O4)[C@H](C)O3)[C@H](C)O2)c2c(cc3c(c2O)C(=O)c2c(O)cccc2C3=O)[C@H]1C(=O)OC` [Aclarubicin]?
Answer: remaining activity at 3.75 µM ([1]; Well no.=1573, high concentration screen): 96.4%; remaining activity at 1.25 µM ([2]; Well no.=1573, low concentration screen): 101%

Question: `O=C(O[C@H]1C[N+]2(CCCOc3ccccc3)CCC1CC2)C(O)(c1cccs1)c1cccs1` [Aclidinium (Bromide)] was tested. Which remaining activity at 3.75 µM ([1]; Well no.=7336, high concentration screen) did it give?
Answer: 101%

Question: What about the remaining activity at 1.25 µM ([2]; Well no.=7336, low concentration screen) of the same compound?
Answer: 98%

Question: Which remaining activity at 3.75 µM ([1]; Well no.=5358, high concentration screen) does the source give for `O=C(O[C@H]1C[N+]2(CCCOc3ccccc3)CCC1CC2)C(O)(c1cccs1)c1cccs1` [Aclidinium Bromide] here?
Answer: 97.4%

Question: What about the remaining activity at 1.25 µM ([2]; Well no.=5358, low concentration screen) of the same compound?
Answer: 100%

Question: Which results are given for `CCN1C[C@]2(COC)[C@H](O)C[C@H](OC)[C@@]34[C@@H]5C[C@@]6(O)[C@H](OC(=O)c7ccccc7)[C@@H]5[C@@](OC(C)=O)([C@@H]([C@H](OC)[C@H]23)[C@@H]14)[C@@H](O)[C@@H]6OC` [Aconitine]?
Answer: remaining activity at 3.75 µM [1]: 98.5%; remaining activity at 1.25 µM [2]: 96%

Question: How did the remaining activity at 3.75 µM ([1]; Well no.=1907, high concentration screen) turn out when `CC(=O)Nc1ccc(CC(=O)O)cc1` [Actarit] was run?
Answer: 95.2%

Question: What about the remaining activity at 1.25 µM ([2]; Well no.=1907, low concentration screen) of the same compound?
Answer: 96.1%

Question: How did the remaining activity at 3.75 µM ([1]; Well no.=3075, high concentration screen) turn out when `Cc1c2oc3c(C)ccc(C(=O)N[C@@H]4C(=O)N[C@H](C(C)C)C(=O)N5CCC[C@H]5C(=O)N(C)CC(=O)N(C)[C@@H](C(C)C)C(=O)O[C@@H]4C)c3nc-2c(C(=O)N[C@@H]2C(=O)N[C@H](C(C)C)C(=O)N3CCC[C@H]3C(=O)N(C)CC(=O)N(C)[C@@H](C(C)C)C(=O)O[C@@H]2C)c(N)c1=O` [Actinomycin D] (I: T[dV]P[Sar][NMeV] / II: T[dV]P[Sar][NMeV]; ester I:1-I:C, II:1-II:C; linker I:N-II:N via Actinocin(9to1)) was run?
Answer: 103%

Question: What about the remaining activity at 1.25 µM ([2]; Well no.=3075, low concentration screen) of the same compound?
Answer: 103%

Question: Which remaining activity at 3.75 µM ([1]; Well no.=21, high concentration screen) does the source give for `CCCCC[C@H](CC(=O)NO)C(=O)N[C@H](C(=O)N1CCC[C@H]1CO)C(C)C` [Actinonin] here?
Answer: 97.8%

Question: And the remaining activity at 1.25 µM ([2]; Well no.=21, low concentration screen)?
Answer: 97.8%

Question: `Nc1nc2c(ncn2COCCO)c(=O)[nH]1` [Acycloguanosine] was tested. Which remaining activity at 3.75 µM ([1]; Well no.=2073, high concentration screen) did it give?
Answer: 106%

Question: And the remaining activity at 1.25 µM ([2]; Well no.=2073, low concentration screen)?
Answer: 103%

Question: How did the remaining activity at 3.75 µM ([1]; Well no.=159, high concentration screen) turn out when `Nc1nc2c(ncn2COCCO)c(=O)[nH]1` [Acyclovir] was run?
Answer: 103%

Question: What about the remaining activity at 3.75 µM ([1]; Well no.=8000, high concentration screen) of the same compound?
Answer: 89.5%

Question: What about the remaining activity at 1.25 µM ([2]; Well no.=159, low concentration screen) of the same compound?
Answer: 104%

Question: What about the remaining activity at 1.25 µM ([2]; Well no.=8000, low concentration screen) of the same compound?
Answer: 92.6%

Question: Which remaining activity at 3.75 µM ([1]; Well no.=1939, high concentration screen) does the source give for `COc1ccc(-c2ccc3cc(C(=O)O)ccc3c2)cc1[C@]12C[C@H]3C[C@H](C[C@H](C3)C1)C2` [Adapalene] here?
Answer: 103%

Question: And the remaining activity at 1.25 µM ([2]; Well no.=1939, low concentration screen)?
Answer: 99.2%

Question: Which results are given for `O=C(OC12CC3CC(CC(C3)C1)C2)c1ccc(NCc2cc(O)ccc2O)cc1` [Adaphostin]?
Answer: remaining activity at 3.75 µM ([1]; Well no.=5772, high concentration screen): 109%; remaining activity at 1.25 µM ([2]; Well no.=5772, low concentration screen): 105%

Question: Which remaining activity at 3.75 µM ([1]; Well no.=6342, high concentration screen) does the source give for `O=C(O)/C=C/c1ccc(-c2ccc(O)c(C34CC5CC(CC(C5)C3)C4)c2)cc1` [Adarotene] here?
Answer: 99%

Question: And the remaining activity at 1.25 µM ([2]; Well no.=6342, low concentration screen)?
Answer: 101%

Question: `Nc1ncnc2nc[nH]c12` [Adenine sulfate] was tested. Which remaining activity at 3.75 µM ([1]; Well no.=5006, high concentration screen) did it give?
Answer: 85.9%

Question: What about the remaining activity at 1.25 µM ([2]; Well no.=5006, low concentration screen) of the same compound?
Answer: 97.9%

Question: `Nc1[nH]cnc2ncnc1-2` [Adenine] was tested. Which remaining activity at 3.75 µM ([1]; Well no.=5004, high concentration screen) did it give?
Answer: 107%

Question: And the remaining activity at 3.75 µM ([1]; Well no.=7253, high concentration screen)?
Answer: 98.1%

Question: What about the remaining activity at 1.25 µM ([2]; Well no.=5004, low concentration screen) of the same compound?
Answer: 108%

Question: And the remaining activity at 1.25 µM ([2]; Well no.=7253, low concentration screen)?
Answer: 101%

Question: With `Nc1ncnc2c1ncn2[C@@H]1O[C@H](COP(=O)(O)OP(=O)(O)O)[C@@H](O)[C@H]1O` [Adenosine 5'-diphosphate] as the compound, how does the remaining activity at 3.75 µM ([1]; Well no.=7363, high concentration screen) read?
Answer: 105%

Question: What about the remaining activity at 3.75 µM ([1]; Well no.=7868, high concentration screen) of the same compound?
Answer: 104%

Question: And the remaining activity at 1.25 µM ([2]; Well no.=7363, low concentration screen)?
Answer: 104%

Question: What about the remaining activity at 1.25 µM ([2]; Well no.=7868, low concentration screen) of the same compound?
Answer: 102%

Question: Which results are given for `Nc1ncnc2c1ncn2[C@@H]1O[C@H](COP(=O)(O)O)[C@@H](O)[C@H]1O` [Adenosine 5'-monophosphate monohydrate]?
Answer: remaining activity at 3.75 µM ([1]; Well no.=7902, high concentration screen): 101%; remaining activity at 1.25 µM ([2]; Well no.=7902, low concentration screen): 96.3%; remaining activity at 1.25 µM ([2]; Well no.=8121, low concentration screen): 106%

Question: For `Nc1ncnc2nc(-c3ccc(N4CCOCC4)nc3)cc(-c3cccc(Br)c3)c12` [Adenosine Kinase Inhibitor], which remaining activity at 3.75 µM ([1]; Well no.=2694, high concentration screen) is on record?
Answer: 103%

Question: And the remaining activity at 1.25 µM ([2]; Well no.=2694, low concentration screen)?
Answer: 102%

Question: Which remaining activity at 3.75 µM ([1]; Well no.=7109, high concentration screen) does the source give for `Nc1ncnc2c1ncn2[C@@H]1O[C@H](COP(=O)(O)O)[C@@H](O)[C@H]1O` [Adenosine monophosphate] here?
Answer: 102%

Question: And the remaining activity at 3.75 µM ([1]; Well no.=7816, high concentration screen)?
Answer: 104%

Question: And the remaining activity at 1.25 µM ([2]; Well no.=7109, low concentration screen)?
Answer: 103%

Question: And the remaining activity at 1.25 µM ([2]; Well no.=7816, low concentration screen)?
Answer: 107%

Question: With `Nc1ncnc2c1ncn2[C@@H]1O[C@H](CO)[C@@H](O)[C@H]1O` [Adenosine] as the compound, how does the remaining activity at 3.75 µM ([1]; Well no.=200, high concentration screen) read?
Answer: 95.6%

Question: And the remaining activity at 3.75 µM ([1]; Well no.=6301, high concentration screen)?
Answer: 102%

Question: And the remaining activity at 3.75 µM ([1]; Well no.=8048, high concentration screen)?
Answer: 88.7%

Question: What about the remaining activity at 1.25 µM ([2]; Well no.=200, low concentration screen) of the same compound?
Answer: 94%

Question: And the remaining activity at 1.25 µM ([2]; Well no.=6301, low concentration screen)?
Answer: 105%

Question: What about the remaining activity at 1.25 µM ([2]; Well no.=8048, low concentration screen) of the same compound?
Answer: 87.9%

Question: For `CCN(CC)CCOC(=O)C(c1ccccc1)c1ccccc1` [Adiphenine HCl], which remaining activity at 3.75 µM ([1]; Well no.=5060, high concentration screen) is on record?
Answer: 105%

Question: And the remaining activity at 1.25 µM ([2]; Well no.=5060, low concentration screen)?
Answer: 105%

Question: Which results are given for `O=C(O)CCCCC(=O)O` [Adipic acid]?
Answer: remaining activity at 3.75 µM ([1]; Well no.=6869, high concentration screen): 98.1%; remaining activity at 1.25 µM ([2]; Well no.=6869, low concentration screen): 102%

Question: Which results are given for `O=C(COc1ccc(C(=O)c2ccccc2)cc1)NC1CCN(Cc2ccccc2)CC1` [AdipoRon]?
Answer: remaining activity at 3.75 µM ([1]; Well no.=7239, high concentration screen): 96.7%; remaining activity at 1.25 µM ([2]; Well no.=7239, low concentration screen): 100%

Question: Which remaining activity at 3.75 µM ([1]; Well no.=7043, high concentration screen) does the source give for `Cc1cc(O[C@@H](CCC(F)(F)F)c2ccc(C(=O)NCCC(=O)O)cc2)cc(C)c1-c1ccc(C(C)(C)C)cc1` [Adomeglivant] here?
Answer: 98.4%

Question: And the remaining activity at 1.25 µM ([2]; Well no.=7043, low concentration screen)?
Answer: 99.3%
